Source: PubChem BioAssay (NCI)
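Five compound concentrations were applied to cells in 96-well plates for 48 hours; endpoints were derived by simple linear interpolation of the resulting dose-response curve. GI50 = concentration required for 50% inhibition of growth. At the TGI there is no net growth.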

Key:
Assay in all cases: NCI tumour cell line growth inhibition, 48 h
786-0 renal = test system: 786-0 renal
EKVX NSCLC = test system: EKVX NSCLC
HL-60(TB) leukemia = test system: HL-60(TB) leukemia
KM12 colon = test system: KM12 colon
MALME-3M melanoma = test system: MALME-3M melanoma
RXF 393 renal = test system: RXF 393 renal
SN12C renal = test system: SN12C renal
TK-10 renal = test system: TK-10 renal
UACC-62 melanoma = test system: UACC-62 melanoma
PC-3 prostate = test system: PC-3 prostate

| Compound | TGI (786-0 renal) [µM] | TGI (EKVX NSCLC) [µM] | TGI (HL-60(TB) leukemia) [µM] | TGI (KM12 colon) [µM] | TGI (MALME-3M melanoma) [µM] | TGI (RXF 393 renal) [µM] | TGI (SN12C renal) [µM] | TGI (TK-10 renal) [µM] | TGI (UACC-62 melanoma) [µM] | GI50 (786-0 renal) [µM] | GI50 (HL-60(TB) leukemia) [µM] | GI50 (KM12 colon) [µM] | GI50 (MALME-3M melanoma) [µM] | GI50 (PC-3 prostate) [µM] | TGI (PC-3 prostate) [µM] | GI50 (RXF 393 renal) [µM] | GI50 (SN12C renal) [µM] | GI50 (UACC-62 melanoma) [µM] | GI50 (TK-10 renal) [µM] | GI50 (EKVX NSCLC) [µM] |
| --- | --- | --- | --- | --- | --- | --- | --- | --- | --- | --- | --- | --- | --- | --- | --- | --- | --- | --- | --- | --- |
| CC(=O)Oc1c(C)n(CCCl)ccc1=O | > 100 | > 100 | > 100 | > 100 | > 100 | > 100 | > 100 | 73.8 | > 100 | – | – | – | – | – | – | – | – | – | – | – |
| OB([O][Hg][c]1ccccc1)[O][Hg][c]1ccccc1 | 0.856 | – | 0.378 | 3.04 | 0.788 | 0.829 | 0.799 | – | 1.69 | 0.281 | 0.0886 | 1.59 | 0.244 | 0.758 | 2.42 | 0.229 | 0.266 | 0.454 | – | – |
| CC1=C(C(=O)Nc2ccccc2)C(c2ccc3c(c2)OCO3)C(C(=O)Nc2ccccc2)=C(C)N1 | > 100 | > 100 | 42.4 | > 100 | > 100 | 50.2 | > 100 | > 100 | > 100 | – | – | – | – | – | – | – | – | – | – | – |
| CCOC(=O)c1cccc(=O)c(C(=O)OCC)c1 | > 100 | > 100 | 62.1 | > 100 | > 100 | > 100 | – | > 100 | > 100 | – | – | – | – | – | – | – | – | – | – | – |
| ClC(=Nc1cccc2ccccc12)N(c1ccccc1)c1ccccc1 | > 100 | – | – | > 100 | > 100 | > 100 | > 100 | > 100 | > 100 | – | – | – | – | – | > 100 | – | – | – | – | – |
| COc1cc[nH]c1/C=C1\C(=O)Nc2ccc(F)c(C#C[C@@H](O)[C@@H](N)[C@@H](C)O)c21 | 3.37 | – | 1.55 | 2.19 | 1.7 | 0.955 | 8.38 | 1.86 | 0.853 | 0.708 | 0.42 | 0.0312 | 0.504 | 0.369 | 1.6 | 0.279 | 0.51 | 0.277 | 0.258 | – |
| COc1cc2c(cc1OC)C(=O)C(Br)CC2 (centres undefined) | 13.4 | – | 28.9 | 19.3 | 8.18 | 3.01 | 12.8 | 17.8 | 4.55 | 4.01 | 4.91 | 5.77 | 3.31 | 8.8 | 23.1 | 1.55 | 3.49 | 2.01 | 5.17 | – |
| Cc1cc(C)nc(NS(=O)(=O)c2ccc(Nc3c4ccccc4nc4c(C(=O)Nc5ccc(S(N)(=O)=O)cc5)cccc34)cc2)n1 | > 100 | 98.2 | – | > 100 | > 100 | > 100 | > 100 | – | > 100 | – | – | – | – | – | – | – | – | – | – | – |
| O=S(=O)(O)CS(=O)(=O)OCCCl | > 100 | > 100 | > 100 | > 100 | > 100 | > 100 | > 100 | > 100 | > 100 | – | – | – | – | – | – | – | – | – | – | – |
| N#Cc1ccccc1NC(=O)C(=O)C(C(=O)c1ccccc1-c1ccccc1)C1OC(=O)c2ccccc21 (centres undefined) | 33.5 | 36 | 50.2 | 41.3 | 26.8 | 25.3 | – | – | 33.8 | – | – | – | – | – | – | – | – | – | – | – |
| COc1ccc(/C=C2/CCCC/C2=N/O)cc1 | > 100 | > 100 | > 100 | > 100 | > 100 | > 100 | > 100 | > 100 | > 100 | – | – | – | – | – | – | – | – | – | – | – |
| CC1=C(C(=O)Nc2ccc([N+](=O)[O-])cc2)C(c2ccco2)C(C(=O)Nc2ccc([N+](=O)[O-])cc2)=C(C)N1 | > 100 | 73.6 | 26.5 | 33.9 | 55.1 | 60.3 | > 100 | 94.3 | – | – | – | – | – | – | – | – | – | – | – | – |
| CCOC(=O)Cc1c(Cc2[nH]c(C(=O)OCc3ccccc3)c(CC(=O)OCC)c2CC(=O)OCC)[nH]c(C(=O)OCc2ccccc2)c1CC(=O)OCC | > 100 | – | > 100 | – | > 100 | – | > 100 | – | > 100 | – | – | – | – | – | – | – | – | – | – | – |
| CCCCCCC(=O)C/C(CCC(=O)N(Cc1ccccc1)Cc1ccccc1)=N\Nc1ccc([N+](=O)[O-])cc1[N+](=O)[O-] | > 100 | > 100 | > 100 | > 100 | > 100 | > 100 | > 100 | > 100 | > 100 | – | – | – | – | – | – | – | – | – | – | – |
| Nc1ccn(C=C=CCO)c(=O)n1 | > 1000 | > 1000 | 435 | > 1000 | > 1000 | – | > 1000 | > 1000 | > 1000 | > 1000 | – | > 1000 | > 1000 | > 1000 | > 1000 | – | > 1000 | > 1000 | > 1000 | > 1000 |
| COc1cc2cc(Oc3ccc(NC(=O)Nc4cccc(C(F)(F)F)c4)cc3)c(C)nc2cc1OCCN1CCCCC1 | 3.21 | 2.92 | 3.74 | 3.3 | 3.07 | – | 3.15 | 3.36 | 3.15 | 1.72 | 1.94 | 1.72 | 1.63 | 1.41 | 2.77 | – | 1.66 | 1.75 | 1.83 | 1.51 |
| COc1cccc(NC(=O)c2sc3nc4c(cc3c2N)CCCC4)c1 | 19.2 | – | 0.765 | > 100 | – | 3.34 | > 100 | 34 | > 100 | 0.42 | 0.228 | 0.414 | – | 0.504 | > 100 | 0.365 | 3.98 | 0.391 | 2.97 | – |
| O=C1C2=C(c3ccccc31)C(c1ccc(Cl)cc1)N1C(=O)CCSC1=N2 (centres undefined) | > 100 | > 100 | > 100 | > 100 | > 100 | – | > 100 | > 100 | > 100 | – | – | – | – | – | – | – | – | – | – | – |
